Results taken from patent US10160771B2, “Hepatitis C virus inhibitors and uses thereof in preparation of drugs” (priority 2014, dated 2018).

What was measured:
[1] = test system: HCV genotype 1a (HCV-1a) replicon cells; test: HCV genotype 1a replicon luciferase assay (EC50); format: cell-based, hepatitis C virus genotype 1a (H77 clone); conditions: 3 days, luciferase (Bright-Glo)
Method in brief: (§1)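 EC50 by nonlinear fitting of % inhibition from Bright-Glo luciferase signal after 3-day, 37° C. compound exposure (5-fold, 6 points from 100, 10 or 1 nM; 0.5% DMSO; duplicates). Cells: 1a replicon from H77 (K1691R/K2040R/S2204I) or 1b from Con1 (E1202G/T1280I/K1846T), 8000 per well.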

[2] = test system: HCV genotype 1b (HCV-1b) replicon cells; test: HCV genotype 1b replicon luciferase assay (EC50); format: cell-based, hepatitis C virus genotype 1b (Con1 clone); conditions: 3 days, luciferase (Bright-Glo)
Method in brief: as §1

in vitro = format: cell-based; conditions: HCV 1a replicon cells, 3 days, Cell Titer-fluor
Method: The EC50 and CC50 values of anti-HCV compounds were determined by HCV genotype 1a (HCV-1a) and 1B (HCV-1b) stable transfer replication (replicon) cells. The source of genotype 1a replicon is H77 clones containing K1691R, K2040R and S2204I adaptive mutations. The source of genotype 1b replicon is Con1 clones containing E1202G, T1280I and K1846T adaptive mutations.
HCV Replicon Cell Lines: HCV-1a and HCV-1b Cells
The compound powder was dissolved in 100% DMSO. Then the compound was diluted 5 times with 6 points, and added into the cell plate with Echo liquid handler. Ensure the final concentration of DMSO was 0.5%. Each compound was tested in double holes. Maximum initial concentration was 100, 10 or 1 nM, 5 times dilution, 6 points.
b) Cell Culture (HCV-1a or HCV-1b Replicon Cell):
1) absorbing the culture supernatant of the cell culture and washing the cells with 10 mL PBS.
2) adding preheated pancreatin to the washed cell culture flasks, rotating culture bottle to make the bottom of the culture bottle uniformly covered by pancreatin, then placed into 37° C., 5% CO2 incubator to digest.
3) suspending cells in each T150 culture flask with 10-15 mL culture medium, absorbing 0.1 mL liquid and diluting 2 times by trypan blue solution as counted.
4) diluting cells to 8×10^4/mL with the culture medium, adding the diluted cells into the compound-containing 96-well plate (Greiner, Cat.#655090) (100 μL/well, 8000 cells/well) with automatic liquid separator (Thermo Scientific). Then place into a 37° C., 5% CO2 incubator for 3 days. Cell control well: no compound, only containing 0.5% DMSO.
5) adding chemiluminescent substrate Cell Titer-fluor to the cell well, after incubation for 30 minutes, detecting the signal by chemiluminescence detection system Envison (Ex at 405 nm and read at 515 nm). The effect of the compounds on the activity of HCV replicon cells was analyzed according to the luminescence data, which was used to calculate the CC50 values.
The EC50 or CC50 values were obtained by nonlinear fitting analysis on inhibition percentage (inh %) data with GraphPad Prism software.

[3] = Cell Titer-fluor cell activity assay in HCV-1b replicon cells (CC50); format: cell-based
Method in brief: (§2)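 CC50 derived by nonlinear fitting of inhibition % from Cell Titer-fluor signal (405/515 nm, 30 min). Cells: genotype 1b Con1 replicon carrying E1202G, T1280I, K1846T, seeded 8000/well with compound for 3 days, 37 °C, 0.5% DMSO; 6 points, 5-fold dilution, top 100, 10 or 1 nM, duplicates.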

HCV-1b replicon cells = test: as above; format: cell-based; conditions: 3 days
Method in brief: as §2

Row | SMILES | EC50 ([1]; Hepatitis C virus, 72 h) | EC50 ([2]; Hepatitis C virus, 72 h) | CC50 (in vitro) | CC50 at 3 days [3] | EC50 [1] | EC50 [2] | CC50 (HCV-1b replicon cells)
1 | COC(=O)N[C@H](C(=O)N1CCCC1c1ccc(-c2ccc(-c3ccc(-c4cnc([C@@H]5CCCN5C(=O)[C@@H](NC(=O)OC)C(C)C)[nH]4)cc3)cc2)[nH]1)C(C)C (stereo partly drawn) [AG_001] | 1 to 10 nM | 0.001 to 0.1 nM | > 10 nM | > 1 nM |  |  | 
2 | COC(=O)NC(C(=O)N1CCCC1c1[nH]c(-c2ccc(-c3ccc(-c4cnc([C@@H]5CCCN5C(=O)[C@@H](NC(=O)OC)C(C)C)[nH]4)cc3)cc2)c2c1CCC2)C1CCOCC1 (stereo partly drawn) [AG_036] | 1 to 10 nM | 0.001 to 0.1 nM | > 100 nM | > 10 nM |  |  | 
3 | COC(=O)NC(C(=O)N1CCC[C@H]1c1ncc(-c2ccc(-c3ccc(-c4[nH]c(C5CCCN5C(=O)[C@@H](NC(=O)OC)C(C)C)c5c4CCCC5)cc3)cc2)[nH]1)C1CCOC1 (stereo partly drawn) [AG_046] | 10 to 100 nM | 0.101 to 1 nM | > 100 nM | > 100 nM |  |  | 
4 | COC(=O)N[C@H](C(=O)N1CCC[C@H]1c1ncc(-c2ccc(-c3ccc(-c4cnc(C5C6CCC(C6)[C@@H]5C(=O)N[C@H](C)c5cccnc5)[nH]4)cc3)cc2)[nH]1)[C@@H](C)OC (single isomer, unassigned) [AA_253_C] |  |  |  |  | 10 to 100 nM | 1 to 10 nM | > 1 nM
5 | COC(=O)NC(C(=O)N1CCCC1c1ccc(-c2ccc(-c3ccc(-c4[nH]c(C5CCCN5C(=O)[C@H](NC(=O)OC)C(C)C)c5c4CCC5)cc3)cc2)[nH]1)C1CCOCC1 (stereo partly drawn) [AG_038] | 10 to 100 nM | 0.101 to 1 nM | > 100 nM | > 10 nM |  |  | 
6 | COC(=O)N[C@H](C(=O)N1CCCC1c1ncc(-c2ccc3cc(-c4ccc(-c5[nH]c(C6CCCN6C(=O)[C@@H](NC(=O)OC)C(C)C)c6c5CCC6)cc4)ccc3c2)[nH]1)C(C)C (stereo partly drawn) [AG_048] | 10 to 100 nM | 0.101 to 1 nM | > 100 nM | > 100 nM |  |  | 
7 | COC(=O)N[C@H](C(=O)N1CCC[C@H]1c1ncc(-c2ccc(-c3ccc(-c4[nH]c([C@@H]5CCCN5C(=O)[C@@H](NC(=O)OC)[C@@H](C)OC)c5c4COC5)cc3)cc2)[nH]1)[C@@H](C)OC [AG_080_A] |  |  |  |  | 0.001 to 0.1 nM | 0.001 to 0.1 nM | > 5 nM
8 | COC(=O)NC(C(=O)N1CCC[C@H]1c1ncc(-c2ccc(-c3ccc(-c4[nH]c(C5CCCN5C(=O)[C@@H](NC(=O)OC)C(C)C)c5c4CCC5)cc3)cc2)[nH]1)C1CCOC1 (stereo partly drawn) [AG_049] | 10 to 100 nM | 0.001 to 0.1 nM | > 100 nM | > 100 nM |  |  | 
9 | COC(=O)NC(C(=O)N1CCC[C@H]1c1ncc(-c2ccc3cc(-c4ccc(-c5[nH]c(C6CCCN6C(=O)[C@@H](NC(=O)OC)C(C)C)c6c5CCC6)cc4)ccc3c2)[nH]1)C1CCOCC1 (stereo partly drawn) [AG_051] | 1 to 10 nM | 0.101 to 1 nM | > 100 nM | > 100 nM |  |  | 
10 | COC(=O)N[C@H](C(=O)N1CCC[C@H]1c1ncc(-c2ccc(-c3ccc(-c4ccc(C5CCCN5C(=O)[C@@H](NC(=O)OC)C5CCOCC5)[nH]4)cc3)cc2)[nH]1)C(C)C (stereo partly drawn) [AG_037] | 0.101 to 1 nM | 0.001 to 0.1 nM | > 100 nM | > 10 nM |  |  | 
11 | COC(=O)N[C@H](C(=O)N1CCC[C@H]1c1ncc(-c2ccc(-c3ccc(-c4cnc(C5C6CCC(C6)[C@H]5C(=O)N[C@H](c5cccnc5)C(C)C)[nH]4)cc3)cc2)[nH]1)[C@@H](C)OC (stereo partly drawn) [AA_271_B] |  |  |  |  | 10 to 100 nM | 0.101 to 1 nM | > 1 nM
12 | COC(=O)NC(C(=O)N1CCCC1c1[nH]c(-c2ccc(-c3ccc(-c4cnc([C@@H]5CCCN5C(=O)C(NC(=O)OC)C5CCOCC5)[nH]4)cc3)cc2)c2c1CCCC2)C1CCOCC1 (stereo partly drawn) [AG_045] | 10 to 100 nM | 0.101 to 1 nM | > 100 nM | > 100 nM |  |  | 
13 | COC(=O)N[C@H](C(=O)N1CCC[C@H]1c1ncc(-c2ccc(-c3ccc(-c4ccc(C5CCCN5C(=O)[C@@H](NC(=O)OC)C(C)C)[nH]4)cc3)cc2)[nH]1)c1ccccc1 (stereo partly drawn) [AG_052] | 1 to 10 nM | 0.001 to 0.1 nM | > 100 nM | > 100 nM |  |  | 
14 | COC(=O)NC(C(=O)N1CCC[C@H]1c1ncc(-c2ccc(-c3ccc(-c4[nH]c(C5CCCN5C(=O)[C@@H](NC(=O)OC)C(C)C)c5c4CCCC5)cc3)cc2)[nH]1)C1CCOC(C)C1 (stereo partly drawn) [AG_047] | 10 to 100 nM | 0.101 to 1 nM | > 100 nM | > 100 nM |  |  | 
15 | COC(=O)NC(C(=O)N1CCC[C@H]1c1ncc(-c2ccc(-c3ccc(-c4[nH]c(C5CCCN5C(=O)[C@@H](NC(=O)OC)C(C)C)c5c4CCC5)cc3)cc2)[nH]1)C1CCOC(C)C1 (stereo partly drawn) [AG_050] | 1 to 10 nM | 0.001 to 0.1 nM | > 100 nM | > 100 nM |  |  | 
16 | COC(=O)N[C@H](C(=O)N1CCCC1c1[nH]c(-c2ccc(-c3ccc(-c4cnc([C@@H]5CCCN5C(=O)[C@@H](NC(=O)OC)C(C)C)[nH]4)cc3)cc2)c2c1CCCC2)C(C)C (stereo partly drawn) [AG_015] | 10 to 100 nM | 0.001 to 0.1 nM | > 100 nM | > 10 nM |  |  | 
17 | COC(=O)NC(C(=O)N1CCCC1c1[nH]c(-c2ccc(-c3ccc(-c4cnc([C@@H]5CCCN5C(=O)C(NC(=O)OC)C5CCOCC5)[nH]4)cc3)cc2)c2c1CCC2)C1CCOCC1 (stereo partly drawn) [AG_042] | 1 to 10 nM | 0.101 to 1 nM | > 100 nM | > 100 nM |  |  | 
18 | COC(=O)N[C@H](C(=O)N1CCCC1c1ccc(-c2ccc(-c3ccc(-c4cnc([C@@H]5CCCN5C(=O)[C@@H](NC(=O)OC)C5CCOC(C)C5)[nH]4)cc3)cc2)[nH]1)C(C)C (stereo partly drawn) [AG_053] | 1 to 10 nM | 0.101 to 1 nM | > 100 nM | > 100 nM |  |  | 
19 | COC(=O)N[C@H](C(=O)N1CCC[C@H]1c1[nH]c(-c2ccc(-c3ccc(-c4cnc([C@@H]5CCCCN5C(=O)[C@@H](NC(=O)OC)[C@@H](C)OC)[nH]4)cc3)cc2)c2c1COC2)C(C)OC (stereo partly drawn) [AG_124] | 0.101 to 1 nM | 0.001 to 0.1 nM | > 100 nM | > 1 nM |  |  | 
20 | COC(=O)NC(C(=O)N1CCCC1c1[nH]c(-c2ccc(-c3ccc(-c4cnc([C@@H]5CCCN5C(=O)[C@@H](NC(=O)OC)C(C)C)[nH]4)cc3)cc2)c2c1CCCC2)C1CCOCC1 (stereo partly drawn) [AG_040] | 10 to 100 nM | 0.101 to 1 nM | > 100 nM | > 10 nM |  |  | 
21 | COC(=O)NC(C(=O)N1CCC[C@H]1c1ncc(-c2ccc(-c3ccc(-c4[nH]c(C5CCCN5C(=O)[C@@H](NC(=O)OC)C(C)C)c5c4CCC5)cc3)cc2)[nH]1)C1CCOCC1 (stereo partly drawn) [AG_035] | 10 to 100 nM | 0.001 to 0.1 nM | > 100 nM | > 10 nM |  |  | 
